Read-outs that look alike come from different tables or passages of the source.
Columns and labels:
[1] = Serum protease stability in 10% fetal calf serum (RP-HPLC); type: in vitro ADME; details: 10% FCS
Method: The stability of the peptide iVR1-Cys in 10% serum (fetal calf serum, FCS) in a 50 mM phosphate buffer solution, pH 7.3, at 168 h was determined as described by Ponticelli et al., relying on a method based on RP-HPLC chromatography, described therein [Ponticelli et al., J Biol Chem. 2008 Dec. 5; 283 (49): 34250-9].
The reference curve was constructed by dissolving the compound in DMSO at increasing concentrations of between 0.1 μmol/L and 1000 μmol/L in order to have complete dissolution. The concentration of the molecule left in contact with 10% FCS at the initial concentration of 10 μmol/L was then determined by drawing 3 aliquots at time t=0, then every hour in the first 12 hours and then at 24, 72, 120, and 168 h. The aliquots were diluted 1:1 with acetic acid 0.1 M in order to detach any peptide bound to the albumin, centrifuged to remove any precipitated materials and analyzed by RP-HPLC under the conditions reported in Ponticelli et al. The amount of residual peptide detected in the aliquots, expressed as a percentage relative to the initial amount, was plotted as a function of time. The results are shown in Table VII as the mean of the three determinations±the standard deviation (SD).

VEGFR1 = VEGFR1 (Homo sapiens, UniProt P17948); details: cited from earlier work
PIGF/VEGFR-1 interaction = molecular target: T1, PIGF/VEGFR-1 interaction (Homo sapiens, UniProt P17948); assay: ELISA competition assay of PIGF binding to VEGFR-1; details: for binding % (PIGF/VEGFR-1 interaction): residual binding
T1 construct: the form consisting of the seven extracellular domains of the receptor fused to the Fc domain of human lgG; purchased R&D Systems 321-FL (receptor); 264-PG (PlGF)
Method: The assay to test the binding of PIGF or VEGF-A with the VEGFR-1 receptor is based on the ELISA method [Ponticelli et al., JBC. 2008 Dec. 5; 283 (49): 34250-9] and was performed using reagents acquired from R&D Systems.
The human recombinant receptor VEGFR-1, in particular the form consisting of the seven extracellular domains of the receptor fused to the Fc domain of human lgG (R&D Systems, cat N° 321-FL), was made to adhere in the wells of 96-well microplates at a concentration of 0.5 μg/ml in PBS pH 7.5 (100 μl/well) for 16 hours at room temperature (RT).
After the non-specific binding sites had been blocked in the wells using a buffer solution consisting of PBS pH 7.5 containing 3% BSA, 5 ng/ml of recombinant PIGF (R&D Systems, cat N° 264-PG), or 5 ng/ml of recombinant VEGF-A (R&D Systems, cat N° 293-VE) of human origin in PBET (PBS pH 7.5, BSA 0.1%, EDTA 5 mM, Tween 0.004%) were added to the wells with the adhered receptor.
Simultaneously with the ligands, i.e., PIGF or VEGF-A, graduated doses of iVR1, iVR1-Cys or a control peptide (PC-[(S-Ser)-(S-Ala)-(S-Cha) tripeptide with a tetrameric structure identical to the structure of the iVR1 peptides]) were added at concentrations comprised between 780 and 50000 nM. The binding reaction was conducted for one hour at 37° C., followed by one hour at room temperature.
(§1) At the end of the binding and/or competition step, anti-human-PIGF biotinylated polyclonal antibodies (R&D Systems, cat No. BAF264) or anti-human-VEGF-A (R&D Systems, cat No. BAF293) were added to the wells at the concentration of 300 ng/ml in PBET. After one hour of incubation at 37° C. followed by one hour at room temperature, an HRP-conjugated avidin-streptavidin system (Vectastain elite ABC kit) and a substrate for HRP (o-phenylenediamine-Sigma, cat No. P1526) were added to the wells. Quantization was performed by determining the absorbance at 490 nm.
Any inhibitory activity of the peptides was expressed in terms of % of residual binding, comparing the data obtained for the binding of PIGF or VEGF-A to the receptors in the presence of the tetrameric peptides with those in the absence of the same. iVR1 represented the positive control of the inhibition of the PIGF/VEGFR-1 or VEGF-A/VEGFR-1 interaction.

[2] = molecular target: T2, VEGF-A/VEGFR-1 interaction (Homo sapiens, UniProt P17948); assay: ELISA competition assay of VEGF-A binding to VEGFR-1; details: for binding % (VEGF-A/VEGFR-1 interaction): residual binding
T2 construct: the form consisting of the seven extracellular domains of the receptor fused to the Fc domain of human lgG; purchased R&D Systems 321-FL (receptor); 293-VE (VEGF-A)
Method: as §1, with “The binding reaction was conducted for one hour at 37° C., followed by one hour at room temperature. At” for “At”, “nm. Any inhibitory activity of the peptides was expressed in terms of % of residual binding, comparing the data obtained for the binding of PIGF or VEGF-A to the receptors in the presence of the tetrameric peptides with those in the absence of the same. iVR1 represented the positive control of the inhibition of the PIGF/VEGFR-1 or VEGF-A/VEGFR-1 interaction.” for “nm.”

T1 sequence (P17948 27-758 limits assumed): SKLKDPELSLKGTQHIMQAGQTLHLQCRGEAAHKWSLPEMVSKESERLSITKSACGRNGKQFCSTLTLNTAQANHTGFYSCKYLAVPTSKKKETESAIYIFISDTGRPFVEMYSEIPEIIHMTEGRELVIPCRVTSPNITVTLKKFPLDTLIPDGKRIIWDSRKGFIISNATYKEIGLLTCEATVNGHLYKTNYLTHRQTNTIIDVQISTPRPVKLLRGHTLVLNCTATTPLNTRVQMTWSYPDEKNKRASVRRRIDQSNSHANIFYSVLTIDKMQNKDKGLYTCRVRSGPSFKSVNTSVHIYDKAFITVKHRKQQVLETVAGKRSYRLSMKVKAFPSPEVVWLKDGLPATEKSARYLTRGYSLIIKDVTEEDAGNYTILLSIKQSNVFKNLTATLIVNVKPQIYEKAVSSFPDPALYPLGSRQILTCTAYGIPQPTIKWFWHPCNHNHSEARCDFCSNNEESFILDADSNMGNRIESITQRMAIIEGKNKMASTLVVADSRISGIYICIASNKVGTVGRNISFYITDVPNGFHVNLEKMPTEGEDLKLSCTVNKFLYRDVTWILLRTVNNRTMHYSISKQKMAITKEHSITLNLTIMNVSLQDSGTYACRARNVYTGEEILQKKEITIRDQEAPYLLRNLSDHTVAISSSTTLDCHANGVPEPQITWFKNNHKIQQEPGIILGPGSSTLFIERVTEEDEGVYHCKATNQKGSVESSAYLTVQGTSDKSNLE
T2 sequence (P17948 27-758 limits assumed): as above
VEGFR1, sequence (P17948 27-1338): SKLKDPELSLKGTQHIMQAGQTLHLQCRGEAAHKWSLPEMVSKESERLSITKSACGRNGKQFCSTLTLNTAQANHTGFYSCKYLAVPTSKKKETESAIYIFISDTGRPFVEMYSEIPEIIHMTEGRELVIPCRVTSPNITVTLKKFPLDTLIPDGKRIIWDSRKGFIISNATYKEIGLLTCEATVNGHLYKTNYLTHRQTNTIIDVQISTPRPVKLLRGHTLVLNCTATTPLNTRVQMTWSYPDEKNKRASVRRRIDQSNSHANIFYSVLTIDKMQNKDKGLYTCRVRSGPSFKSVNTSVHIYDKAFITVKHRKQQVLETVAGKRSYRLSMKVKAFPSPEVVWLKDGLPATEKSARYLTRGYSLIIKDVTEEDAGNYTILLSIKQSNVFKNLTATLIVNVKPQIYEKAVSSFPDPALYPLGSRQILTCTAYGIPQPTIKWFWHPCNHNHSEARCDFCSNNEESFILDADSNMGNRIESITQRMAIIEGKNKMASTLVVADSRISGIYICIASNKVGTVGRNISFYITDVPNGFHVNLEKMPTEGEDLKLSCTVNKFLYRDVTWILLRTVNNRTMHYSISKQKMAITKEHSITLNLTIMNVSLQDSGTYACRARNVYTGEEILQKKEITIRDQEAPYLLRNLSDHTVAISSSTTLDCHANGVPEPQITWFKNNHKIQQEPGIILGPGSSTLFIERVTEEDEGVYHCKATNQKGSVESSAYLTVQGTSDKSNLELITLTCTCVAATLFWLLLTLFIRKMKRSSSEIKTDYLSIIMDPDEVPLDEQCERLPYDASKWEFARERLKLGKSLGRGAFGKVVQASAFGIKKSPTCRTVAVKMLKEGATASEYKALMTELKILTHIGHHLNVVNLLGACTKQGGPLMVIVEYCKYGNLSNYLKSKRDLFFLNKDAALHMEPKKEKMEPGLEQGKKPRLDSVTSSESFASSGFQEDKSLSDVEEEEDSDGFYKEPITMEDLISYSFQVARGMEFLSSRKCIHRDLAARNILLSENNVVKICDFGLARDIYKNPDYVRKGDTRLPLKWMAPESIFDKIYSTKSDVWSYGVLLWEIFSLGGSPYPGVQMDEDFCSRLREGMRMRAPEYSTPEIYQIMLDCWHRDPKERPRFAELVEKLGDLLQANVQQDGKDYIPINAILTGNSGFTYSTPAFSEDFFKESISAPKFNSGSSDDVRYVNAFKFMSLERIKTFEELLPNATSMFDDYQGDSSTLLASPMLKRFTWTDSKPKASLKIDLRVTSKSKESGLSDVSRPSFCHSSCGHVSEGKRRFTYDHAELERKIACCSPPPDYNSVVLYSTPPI

In the case of `N[C@H](CCC(=O)O)C(=O)N[C@@H](CSCc1ccccc1)C(=O)N[C@@H](CC1CCCCC1)C(=O)NCCCC[C@H](NC(=O)[C@H](CC1CCCCC1)NC(=O)[C@H](CSCc1ccccc1)NC(=O)[C@H](N)CCC(=O)O)C(=O)NCCCC[C@H](NC(=O)[C@H](CCCCNC(=O)[C@H](CC1CCCCC1)NC(=O)[C@H](CSCc1ccccc1)NC(=O)[C@H](N)CCC(=O)O)NC(=O)[C@H](CC1CCCCC1)NC(=O)[C@H](CSCc1ccccc1)NC(=O)[C@H](N)CCC(=O)O)C(=O)N[C@H](CS)C(=O)O` [iVR1-Cys], the “% residual peptide ± SD” value ([1]; 0 h, 50 mM phosphate buffer pH 7.3, initial 10 μmol/L) is reported as 101 ± 4%, the remaining at 1 h, 10 μmol/L ([1]; calf (bovine), 10% fetal calf serum, 1 h, pH 7.3, read-out: % residual peptide ± SD) is reported as 100 ± 11% and the remaining at 2 h, 10 μmol/L ([1]; calf (bovine), 10% fetal calf serum, 2 h, pH 7.3, read-out: % residual peptide ± SD) is reported as 99 ± 7%. It also gave a remaining at 3 h, 10 μmol/L ([1]; calf (bovine), 10% fetal calf serum, 3 h, pH 7.3, read-out: % residual peptide ± SD) of 98 ± 5%, a remaining at 4 h, 10 μmol/L ([1]; calf (bovine), 10% fetal calf serum, 4 h, pH 7.3, read-out: % residual peptide ± SD) of 97 ± 4% and a remaining at 5 h, 10 μmol/L ([1]; calf (bovine), 10% fetal calf serum, 5 h, pH 7.3, read-out: % residual peptide ± SD) of 96 ± 5%. The remaining at 6 h, 10 μmol/L ([1]; calf (bovine), 10% fetal calf serum, 6 h, pH 7.3, read-out: % residual peptide ± SD) was 99 ± 6%, the remaining at 7 h, 10 μmol/L ([1]; calf (bovine), 10% fetal calf serum, 7 h, pH 7.3, read-out: % residual peptide ± SD) was 95 ± 8% and the remaining at 8 h, 10 μmol/L ([1]; calf (bovine), 10% fetal calf serum, 8 h, pH 7.3, read-out: % residual peptide ± SD) was 96 ± 5%. For the same molecule, the remaining at 9 h, 10 μmol/L ([1]; calf (bovine), 10% fetal calf serum, 9 h, pH 7.3, read-out: % residual peptide ± SD) was 95 ± 6%, the remaining at 10 h, 10 μmol/L ([1]; calf (bovine), 10% fetal calf serum, 10 h, pH 7.3, read-out: % residual peptide ± SD) was 94 ± 10% and the remaining at 11 h, 10 μmol/L ([1]; calf (bovine), 10% fetal calf serum, 11 h, pH 7.3, read-out: % residual peptide ± SD) was 94 ± 8%. The remaining at 12 h, 10 μmol/L ([1]; calf (bovine), 10% fetal calf serum, 12 h, pH 7.3, read-out: % residual peptide ± SD) was 93 ± 4%, the remaining at 24 h, 10 μmol/L ([1]; calf (bovine), 10% fetal calf serum, 24 h, pH 7.3, read-out: % residual peptide ± SD) was 93 ± 6% and the remaining at 72 h, 10 μmol/L ([1]; calf (bovine), 10% fetal calf serum, 72 h, pH 7.3, read-out: % residual peptide ± SD) was 92 ± 7%. For the same molecule, the remaining at 120 h, 10 μmol/L ([1]; calf (bovine), 10% fetal calf serum, 120 h, pH 7.3, read-out: % residual peptide ± SD) was 91 ± 5% and the remaining at 168 h, 10 μmol/L ([1]; calf (bovine), 10% fetal calf serum, 168 h, pH 7.3, read-out: % residual peptide ± SD) was 92 ± 8%.
For `N[C@H](CCC(=O)O)C(=O)N[C@@H](CSCc1ccccc1)C(=O)N[C@@H](CC1CCCCC1)C(=O)NCCCC[C@H](NC(=O)[C@H](CC1CCCCC1)NC(=O)[C@H](CSCc1ccccc1)NC(=O)[C@H](N)CCC(=O)O)C(=O)NCCCC[C@H](NC(=O)[C@H](CCCCNC(=O)[C@H](CC1CCCCC1)NC(=O)[C@H](CSCc1ccccc1)NC(=O)[C@H](N)CCC(=O)O)NC(=O)[C@H](CC1CCCCC1)NC(=O)[C@H](CSCc1ccccc1)NC(=O)[C@H](N)CCC(=O)O)C(=O)NCC(=O)O` [iVR1], the IC50 (VEGFR1; in vitro, reported by Ponticelli et al., read-out: IC50 of inhibition of the interaction of PIGF, VEGF-A and VEGF-B with VEGFR1) is listed as roughly 10 µM, the IC50 (VEGFR1; reported in Ponticelli et al., read-out: affinity towards VEGFR1 (expressed as IC50)) is listed as no less than 10 µM and the “binding % (PIGF/VEGFR-1 interaction)” value (PIGF/VEGFR-1 interaction; peptide 780 nM) is listed as 99.36%. For the same molecule, the “binding % (PIGF/VEGFR-1 interaction)” value (PIGF/VEGFR-1 interaction; peptide 1560 nM) was 101.32%, the “binding % (PIGF/VEGFR-1 interaction)” value (PIGF/VEGFR-1 interaction; peptide 3125 nM) was 96.10% and the “binding % (PIGF/VEGFR-1 interaction)” value (PIGF/VEGFR-1 interaction; peptide 6250 nM) was 68.49%. The “binding % (PIGF/VEGFR-1 interaction)” value (PIGF/VEGFR-1 interaction; peptide 12500 nM) was 44.57%, the “binding % (PIGF/VEGFR-1 interaction)” value (PIGF/VEGFR-1 interaction; peptide 25000 nM) was 36.02% and the “binding % (PIGF/VEGFR-1 interaction)” value (PIGF/VEGFR-1 interaction; peptide 50000 nM) was 26.26%. The IC50 (PIGF/VEGFR-1 interaction; read-out: IC50 of inhibition of the interaction of PIGF with VEGFR-1) was roughly 10 µM, the “binding % (VEGF-A/VEGFR-1 interaction)” value ([2]; peptide 780 nM) was 98.36% and the “binding % (VEGF-A/VEGFR-1 interaction)” value ([2]; peptide 1560 nM) was 96.21%. For the same molecule, the “binding % (VEGF-A/VEGFR-1 interaction)” value ([2]; peptide 3125 nM) was 93.93%, the “binding % (VEGF-A/VEGFR-1 interaction)” value ([2]; peptide 6250 nM) was 66.00% and the “binding % (VEGF-A/VEGFR-1 interaction)” value ([2]; peptide 12500 nM) was 37.02%. The “binding % (VEGF-A/VEGFR-1 interaction)” value ([2]; peptide 25000 nM) was 21.45%, the “binding % (VEGF-A/VEGFR-1 interaction)” value ([2]; peptide 50000 nM) was 8.60% and the IC50 ([2]; read-out: IC50 for VEGF-A/VEGFR-1 inhibition) was roughly 10 µM.

Source: patent US12441765B2, “Peptides and medical uses thereof” (Anbition S.R.L., priority 2018, dated 2025)
